Entries after “also recorded” stand apart in the source; their conditions may differ.
Columns and labels:
rat MCH1R [1] = target: T1, rat MCH1R (Rattus norvegicus, UniProt P97639); test: MCH-induced Ca2+ mobilization (FLIPR) in HEK 293T cells expressing rat MCH1R; assay type: cell-based
rat MCH1R [2] = target: T1, rat MCH1R; test: [125I] MCH binding to membrane fractions of MCH1R expressing HEK-293T
Description: Cell pellet was homogenized with ice-cold 50 mM Tris-HCl buffer (pH 7.4) containing 5 mM EDTA, and ultra-centrifuged twice at 48,000×g for 20 min at 4° C. The pellets were then suspended in 50 mM Tris-HCl (pH 7.4) buffer containing 5 mM EDTA and used as membrane fractions. […] The radioactivity retained in the filters was determined with a γ-counter. IC50 values calculated as described above are expressed as the mean +S.E.M. for three independent determinations. DNA was mixed with LipofectAMINE transfection reagents (Life Technologies, MD), and the mixture was diluted with Opti-MEM and added to 60-70% confluent HEK 293T cells plated on 100-mm dishes. The transfected cells were cultured in DMEM containing 10% FBS.

[3] = target: kappa opioid receptor (dynorphin) (Homo sapiens, UniProt P41145); test: Selectivity versus kappa opioid receptor; assay type: cell-based
Chain of kappa opioid receptor (dynorphin) (P41145 whole entry): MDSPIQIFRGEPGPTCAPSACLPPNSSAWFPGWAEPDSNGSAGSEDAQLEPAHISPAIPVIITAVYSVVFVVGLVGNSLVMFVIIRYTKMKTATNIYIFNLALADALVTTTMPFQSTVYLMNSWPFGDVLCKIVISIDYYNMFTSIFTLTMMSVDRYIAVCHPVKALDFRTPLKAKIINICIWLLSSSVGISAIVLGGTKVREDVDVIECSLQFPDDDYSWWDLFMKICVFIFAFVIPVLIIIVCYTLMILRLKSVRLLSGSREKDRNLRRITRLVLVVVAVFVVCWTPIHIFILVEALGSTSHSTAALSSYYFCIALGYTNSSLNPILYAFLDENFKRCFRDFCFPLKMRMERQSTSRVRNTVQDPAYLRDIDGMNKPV

rats [4] = test: Spontaneous activity (ambulatory and non-ambulatory movements) after icv administration, Example IV; assay type: in vivo, rat
Description: To determine the effect of TPI 1361-17 on spontaneous activity on rats, intraventricular cannulated rats were acclimatized to the testing situation. […] Ambulatory movements and non-ambulatory movements were monitored for 60 minutes upon administration of five nmol TPI 1361-17 or ACSF (FIGS. 4A, 4B).
For these experiments, ambulatory movements were recorded using a Hamilton-Kinder Activity Monitor (with the infrared beams in a 4×8 configured frame). Locomotion was quantified in transparent polycarbonate cages (32×26×20 cm) placed within the activity frames. Animal position was detected by two dimensional beam breaks. The ambulation was tabulated as a movement that results in the change of location. All other beam breaks are categorized as non-ambulatory, fine movement. Animals were acclimatized to the novel home cage-environment for 60 minutes before injection, then were removed, injected and immediately replaced in the same cage, and monitoring began. Locomotion was measured for 60 minutes after the ICV administration of either ACSF or 5 nmol TPI 1361-17.
For animal studies, adult male Sprague-Dawley rats weighing 200-300g were obtained from Charles River Laboratories (Wilmington, Mass.), bearing a 23-gauge stainless steel cannula placed into the right lateral ventricle. […]

rats [5] = test: MCH-induced food intake after icv administration; assay type: in vivo, rat
Description: To determine inhibitory effects of TPI 1361-17 on MCH-induced food intake, rats were habituated to a wire bottom cage for more than 3 weeks prior to the experiment. Experiments were carried out from 6 a.m. to 7 a.m. when rats were satiated. […] On the other hand, five nmol of TPI 1361-17 suppressed cumulative food intake by 75% even at 4h (FIG. 5B).
To determine the effects of TPI 1361-17 on MCH-induced food intake, rats were randomly divided into three groups: 1) TPI 1361-17 (dissolved in DMSO) and 2 nmol of MCH; 2) MCH 2 nmol, 3) ACSF. Each mixture contained a DMSO equivalent concentration to that of the antagonist solution (up to 5% (v/v)). Ten μl of each solution was administered into lateral ventricle for 2 minutes. The injections were done between 7:00-8:00 a.m., and food intake was monitored for 4 h after the injection.
For animal studies, adult male Sprague-Dawley rats weighing 200-300g were obtained from Charles River Laboratories (Wilmington, Mass.), bearing a 23-gauge stainless steel cannula placed into the right lateral ventricle. Rats were housed individually and maintained on a 12 h light-dark cycle (6:00 am-6:00 pm light) with free access to tap water and rat chaw (PROLAB RMH 2500, containing 23.0% protein, 4.5% fat, gross energy 4.5 kcal/g. PMI nutrition international, LLC. Brentwood, Mo.). Prior to all studies, rats were handled and habituated for 7 days, and 10 μl of artificial cerebrospinal fluid (ACSF: NaCl 124, KCl 5, CaCl2 2.4 MgSO4 2, KH2PO4 1.25, NaHCO3 26 and glucose 10, in mM) was injected through the cannula to minimize stress effects at the time of the experiment. Cannula placement was confirmed in all animals by evaluating the response to 50 ng of angiotensin II. Only animals drinking more than 5 ml of water in 1 h were used in feeding studies.

rats [6] = test: Spontaneous food intake after icv administration, Example IV; assay type: in vivo, rat; conditions: 5 nmol icv
Description: To determine inhibitory effects of TPI 1361-17 on spontaneous food intake, TPI 1361-17 (5 nmol) was administered icv and food intake was measured 0.5 h, 1 h, 2 h, and 4 h after the injection. Food intake was quantified either at the start of either the dark phase, which is considered similar to natural conditions, or the light phase. To synchronize initiation of the food intake and to measure the efficiency of TPI 1361-17, rat food pellets were removed for different lengths of time before the injection. It was observed that TPI 1361-17 reduced spontaneous food intake of rats that have been fasted for 1 hr before the dark phase by 37%. This inhibitory effect was detected within the first 30 minutes of feeding and is not detected later (FIG. 6A).
The two groups of rats that were tested at the beginning of the dark phase were starved for 1 h or 4 h before, being injected with 5 nmol of antagonist or ACSF between 6:00-7:00 p.m. Animals had free access to water. Fifteen minutes after injection, container of regular low-fat diet were placed in the cage, and food consumption was monitored for 4 h. The group of rats that were injected at the beginning of the light phase was starved overnight before being injected at 5 nmol of antagonist or ACSF. Monitoring of the food consumption was identical to that described for the rats starved during the dark phase.
For animal studies, adult male Sprague-Dawley rats weighing 200-300g were obtained from Charles River Laboratories (Wilmington, Mass.), bearing a 23-gauge stainless steel cannula placed into the right lateral ventricle. Rats were housed individually and maintained on a 12 h light-dark cycle (6:00 am-6:00 pm light) with free access to tap water and rat chaw (PROLAB RMH 2500, containing 23.0% protein, 4.5% fat, gross energy 4.5 kcal/g. PMI nutrition international, LLC. Brentwood, Mo.). […]

rats [7] = test: Motor activity in rats, Example VI; assay type: in vivo, rat; conditions: 10 nM i.c.v.
Description: Sprague Dawley rats were randomly divided into two groups (Group I and Group II) of eight (8) rats each. The rats in Group I (n=8) received 0.9% saline by i.c.v. injection. The rats in Group II (n−8) received 10 nM TPI 1361-17 (Formula IV) by i.c.v. injection. […] Once each day thereafter, for a total of ______ days, the rats were taken into a test room, allowed to acclimatize for ______ minutes, then placed in four identical chambers (43 cm×43 cm×30.5 cm) that were connected to a common interface and computer (MED Associates, Inc., St. Albans, Vt.). Horizontal movement of the rats was monitored by 16 photobeams per side evenly spaced along each wall of two adjacent sides of each test chamber.

T1 sequence (P97639 whole entry): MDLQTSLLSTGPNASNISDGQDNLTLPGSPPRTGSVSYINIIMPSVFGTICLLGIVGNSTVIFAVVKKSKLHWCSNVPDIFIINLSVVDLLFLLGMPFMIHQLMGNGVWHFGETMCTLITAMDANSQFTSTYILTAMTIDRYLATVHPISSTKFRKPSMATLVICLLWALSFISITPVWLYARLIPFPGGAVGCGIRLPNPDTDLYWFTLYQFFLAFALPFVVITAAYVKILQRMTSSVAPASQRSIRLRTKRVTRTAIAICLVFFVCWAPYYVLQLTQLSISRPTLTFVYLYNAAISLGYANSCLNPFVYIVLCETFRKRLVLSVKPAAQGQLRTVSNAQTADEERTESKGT

C[C@@H](CNCc1ccccc1)N1C[C@H](CCCNC(=N)N)N(CCc2cccc(F)c2)C1=S [TPI 1361-17, N-(3-{(4S)-1-[(1S)-2-(benzylamino)-1-methylethyl]-3-[2-(3-fluorophenyl)ethyl]-2-thioxoimidazolidin-4-yl}propyl)guanidine]
IC50 (rat MCH1R [1]; 1 nM MCH, HEK 293T cells expressing rat MCH1R): 6.1 nM
Slope of Schild regression (rat MCH1R [1]; r2=0.975): 1.085±0.010
Kb (rat MCH1R [1]; read-out: Kb predicted from Schild regression): 0.37 nM
pA2 (Schild regression) (rat MCH1R [1]; shift of MCH dose response curves): 9.43
Change of basal Ca2+ level by the compound itself (rat MCH1R [1]; without MCH): did not change the basal Ca^2+ level
Displacement of [125I] MCH binding to rat MCH1R (rat MCH1R [2]): completely displaced
IC50 (rat MCH1R [2]; mean ±S.E.M., 0.1 nM radioligand, read-out: IC50 for displacement of [125I] MCH binding): 140 ± 34.6 nM
Selectivity for MCH1R compared with kappa opioid receptor [3]: more than 1,000 fold
Total amounts of non-ambulatory or ambulatory movements versus ACSF (rats [4]; 5 nmol icv, 60 minutes): no significant differences
Detectable changes in movement (rats [4]; five or one nmol icv): did not exhibit any detectable changes in movement; also recorded: did not affect locomotion or fine movements
MCH-induced food intake at the low dose (rats [5]; 1 nmol icv with 2 nmol MCH, reversed over the next two hours): decreased MCH-induced food intake for 1 h and 2h
Suppression of cumulative MCH-induced food intake (rats [5]; 5 nmol icv with 2 nmol MCH, at 4h): 75%
Reduction of MCH-induced food intake, maximal (rats [5]; dose dependent, icv, SD rats, beginning of light phase): up to 75%
Duration of the effect on MCH-induced food intake (rats [5]; icv): over 4 h
Reduction of spontaneous food intake (rats [6]; fasted 1 hr before dark phase, first 30 minutes of feeding): 37%
Effect on spontaneous food intake (rats [6]; fasted 4 h before the dark phase): no apparent effect
Effect on spontaneous food intake (rats [6]; fasted 12 hrs before the light phase): no apparent effect
Motor activity versus control (distance traveled, time resting, time ambulatory, ambulatory counts, time stereotypic, stereotypic counts) (rats [7]): no significant differences
